Like-named read-outs stand apart in the source and are kept apart here.
Tested on: 134 cancer cell lines
Assay: Cell viability assay (ATPlite, 72 hours), IC50 on cancer cell line panel

C[C@H](Nc1ncnc2nc[nH]c12)c1cc2cccc(Cl)c2c(=O)n1-c1ccccc1 [duvelisib]
IC50 (Homo sapiens, MOLM-13, read-out: IC50 in cell proliferation assay, MOLM-13 cell line (FLT3 ITD)): 0.004 µM | IC50 (Homo sapiens, MOLT-4, read-out: IC50 in cell proliferation assay, MOLT-4 cell line): 5.92 µM | IC50 (Homo sapiens, MV4-11, read-out: IC50 in cell proliferation assay, MV4-11 cell line (FLT3 ITD)): 0.014 µM | IC50 (Homo sapiens, MeWo, read-out: IC50 in cell proliferation assay, MeWo cell line): 28.1 µM | IC50 (Homo sapiens, NCCIT, read-out: IC50 in cell proliferation assay, NCC-IT cell line): 10.6 µM | IC50 (Homo sapiens, NCI-H82, read-out: IC50 in cell proliferation assay, cell line NCI-H82): > 31.6 µM | IC50 (Homo sapiens, NCI-H460, read-out: IC50 in cell proliferation assay, NCI-H460 cell line): 11.1 µM | IC50 (Homo sapiens, NCI-H661, read-out: IC50 in cell proliferation assay, NCI-H661 cell line): 3.22 µM | IC50 (Homo sapiens, NCI-H716, read-out: IC50 in cell proliferation assay, cell line NCI-H716 (FGFR2-COL14A1)): 5.31 µM | IC50 (Homo sapiens, NCI-H1650, read-out: IC50 in cell proliferation assay, NCI-H1650 cell line (EGFR exon19del)): 11 µM | IC50 (Homo sapiens, NCI-H1975, read-out: IC50 in cell proliferation assay, NCI-H1975 cell line (EGFR p.L858R + p.T790M)): 7.77 µM | IC50 (Homo sapiens, NCI-H2228, read-out: IC50 in cell proliferation assay, NCI-H2228 cell line (EML4-ALK)): 13.8 µM | IC50 (Homo sapiens, OVCAR-3, read-out: IC50 in cell proliferation assay, cell line OVCAR-3): 0.617 µM | IC50 (Homo sapiens, PFSK-1, read-out: IC50 in cell proliferation assay, cell line PFSK-1): 13.1 µM | IC50 (Homo sapiens, RL95-2, read-out: IC50 in cell proliferation assay, cell line RL95-2 (EGFR p.A289V)): 3.6 µM | IC50 (Homo sapiens, RPMI-7951, read-out: IC50 in cell proliferation assay, cell line RPMI-7951 (BRAF p.V600E)): 2.81 µM | IC50 (Homo sapiens, RS4-11, read-out: IC50 in cell proliferation assay, cell line RS4;11): 9.2 µM | IC50 (Homo sapiens, Rec1, read-out: IC50 in cell proliferation assay, cell line REC-1): 14.4 µM | IC50 (Homo sapiens, SHP77, read-out: IC50 in cell proliferation assay, cell line SHP-77): > 31.6 µM | IC50 (Homo sapiens, SK-BR-3, read-out: IC50 in cell proliferation assay, cell line SK-BR-3 (ERBB2 amplification)): 2.33 µM | IC50 (Homo sapiens, SK-N-AS, read-out: IC50 in cell proliferation assay, cell line SK-N-AS): > 31.6 µM | IC50 (Homo sapiens, SK-N-FI, read-out: IC50 in cell proliferation assay, cell line SK-N-FI): > 31.6 µM | IC50 (Homo sapiens, SK-N-MC, read-out: IC50 in cell proliferation assay, cell line SK-N-MC): 12.2 µM | IC50 (Homo sapiens, SK-N-SH, read-out: IC50 in cell proliferation assay, cell line SK-N-SH (ALK p.F1174L)): 12.6 µM | IC50 (Homo sapiens, SNU-5, read-out: IC50 in cell proliferation assay, cell line SNU-5 (MET amplification)): 11.2 µM | IC50 (Homo sapiens, SNU-16, read-out: IC50 in cell proliferation assay, cell line SNU-16 (FGFR2 amplification)): > 31.6 µM | IC50 (Homo sapiens, SNU-C2B, read-out: IC50 in cell proliferation assay, cell line SNU-C2B (EGFR p.R165Q)): 9.36 µM | IC50 (Homo sapiens, SU-DHL-1, read-out: IC50 in cell proliferation assay, cell line SU-DHL-1 (NPM1-ALK)): 22.6 µM | IC50 (Homo sapiens, SU-DHL-6, read-out: IC50 in cell proliferation assay, cell line SU-DHL-6): 0.00177 µM | IC50 (Homo sapiens, SUP-T1, read-out: IC50 in cell proliferation assay, cell line SUP-T1): 29.3 µM | IC50 (Homo sapiens, SW48, read-out: IC50 in cell proliferation assay, cell line SW48 (EGFR p.G719S)): 5.94 µM | IC50 (Homo sapiens, SW480, read-out: IC50 in cell proliferation assay, cell line SW480): 30.5 µM | IC50 (Homo sapiens, SW626, read-out: IC50 in cell proliferation assay, cell line SW626): 24.9 µM | IC50 (Homo sapiens, SW780, read-out: IC50 in cell proliferation assay, cell line SW780 (FGFR3-BAIAP2L1)): > 31.6 µM | IC50 (Homo sapiens, SW837, read-out: IC50 in cell proliferation assay, cell line SW837): 25.9 µM | IC50 (Homo sapiens, SW872, read-out: IC50 in cell proliferation assay, cell line SW872 (BRAF p.V600E)): 23.7 µM | IC50 (Homo sapiens, SW900, read-out: IC50 in cell proliferation assay, cell line SW900): 7.57 µM | IC50 (Homo sapiens, SW948, read-out: IC50 in cell proliferation assay, cell line SW948): 12.7 µM | IC50 (Homo sapiens, SW982, read-out: IC50 in cell proliferation assay, cell line SW982 (BRAF p.V600E)): 4.21 µM | IC50 (Homo sapiens, SW-620, read-out: IC50 in cell proliferation assay, cell line SW620): 20.1 µM | IC50 (Homo sapiens, T98G, read-out: IC50 in cell proliferation assay, cell line T98G): 4.8 µM | IC50 (Homo sapiens, TCC-SUP, read-out: IC50 in cell proliferation assay, cell line TCCSUP): 21.6 µM | IC50 (Homo sapiens, THP-1, read-out: IC50 in cell proliferation assay, cell line THP-1): 0.15 µM | IC50 (Homo sapiens, U2OS, read-out: IC50 in cell proliferation assay, cell line U2OS): 8.82 µM | IC50 (Homo sapiens, U-87 MG, read-out: IC50 in cell proliferation assay, cell line U-87MG ATCC): 10.5 µM | IC50 (Homo sapiens, U-118-MG, read-out: IC50 in cell proliferation assay, cell line U-118MG): > 31.6 µM | IC50 (Homo sapiens, UMUC3, read-out: IC50 in cell proliferation assay, cell line UM-UC-3): 25.3 µM | IC50 (Hs766T, read-out: IC50 in cell proliferation assay, Hs 766T cell line): 18.6 µM | IC50 (L-82, read-out: IC50 in cell proliferation assay, L-82 cell line (NPM1-ALK)): 22.1 µM | IC50 (Rh30, read-out: IC50 in cell proliferation assay, cell line Rh30): 12.2 µM | IC50 (read-out: IC50 in cell proliferation assay, 11-18 cell line (EGFR p.L858R)): 12.9 µM | IC50 (read-out: IC50 in cell proliferation assay, Hs 852.T cell line): 21.4 µM | IC50 (read-out: IC50 in cell proliferation assay, JAR cell line): 0.234 µM | IC50 (read-out: IC50 in cell proliferation assay, cell line 5637): 28 µM | IC50 (read-out: IC50 in cell proliferation assay, cell line A-388): 12.4 µM | IC50 (read-out: IC50 in cell proliferation assay, cell line DB): > 31.6 µM | IC50 (read-out: IC50 in cell proliferation assay, cell line DEL (NPM1-ALK)): > 31.6 µM | IC50 (read-out: IC50 in cell proliferation assay, cell line ES-2 (BRAF p.V600E)): > 31.6 µM | IC50 (read-out: IC50 in cell proliferation assay, cell line PA-1): 10.7 µM | IC50 (read-out: IC50 in cell proliferation assay, cell line PC-3): 5.81 µM | IC50 (read-out: IC50 in cell proliferation assay, cell line RD): 27.6 µM | IC50 (read-out: IC50 in cell proliferation assay, cell line RKO (BRAF p.V600E)): 8.82 µM | IC50 (read-out: IC50 in cell proliferation assay, cell line RL): 24 µM | IC50 (read-out: IC50 in cell proliferation assay, cell line RT-4 (FGFR3-TACC3)): 9.68 µM | IC50 (read-out: IC50 in cell proliferation assay, cell line SR (NPM1-ALK)): 14.1 µM | IC50 (read-out: IC50 in cell proliferation assay, cell line T24): 31.2 µM | IC50 (read-out: IC50 in cell proliferation assay, cell line TT (RET p.C634W)): > 31.6 µM | IC50 (read-out: IC50 in cell proliferation assay, cell line VA-ES-BJ): 2.94 µM
